Tests used:
TLR6 [1] = target: T1, TLR6 (Mus musculus, UniProt Q9EPW9, P680H); test: TNF-α production by RAW 264.7 cells transfected with TLR6DN; assay type: cell-based
T1 construct: expressed in transfected cells; host or cells: RAW 264.7 (pIRES vector)
From the text: A murine TLR6 dominant negative construct was generated by PCR mutation during amplification from RAW 264.7 cell cDNA. The 5′ and 3′ regions flanking a codon encoding proline 691 were amplified with primers (5′ sense: SEQ ID NO 1; 5′ antisense: SEQ ID NO 2; 3′sense: SEQ ID NO 3; 3′ antisense: SEQ ID NO 4) that changed the codon for proline 691 to a codon encoding histidine while introducing a unique Apa LI restriction enzyme site at the position of the mutation. The 5′ and 3′ sections of the TLR6 were amplified by Pfu Turbo DNA polymerase kit (Stratagene, La Jolla, Calif.). The PCR sections were inserted into pCR-Blunt II-TOPO for sequence verification. The two sections were joined together when subcloned into pIRES (Clontech, Palo Alto, Calif.) for expression in mammalian cells.
RAW 264.7 cells were co-transfected with a truncated human CD4 for RAW 264.7 cells in a 4:1 ratio of TLR plasmid to CD4 plasmid. Transfection of RAW 264.7 cells was carried out using the transfection reagent DoTaP (Roche Diagnostics Corp., Indianapolis, Ind.) according to the manufacturer's specifications. […]
(§1) TNF-α levels were measured with a commercial Human TNF-α ELISA kit (Biosource International, Inc., Camarillo, Calif.) according to the manufacturer's specifications. […]

TLR6 [2] = target: T2, TLR6 (Homo sapiens, UniProt Q9Y2C9, P680H); test: TNF-α production by THP-1 cells transfected with TLR6DN vs vector control; assay type: cell-based
T2 construct: expressed in transfected cells; host or cells: THP-1 (pIRES vector)
From the text: The human TLR6 dominant negative construct was generated from human PBMC cDNA using the same strategy as the murine TLR6 dominant negative. The proline to histidine mutation for human TLR6 was introduced at amino acid 680 along with an Apa LI restriction enzyme site (5′ sense: SEQ ID NO 5; 5′ antisense: SEQ ID NO 6; 3′ sense: SEQ ID NO 7; 3′ antisense: SEQ ID NO 8).
The amplified 5′ and 3′ sections of each human dominant negative TLR was inserted into pCR-Blunt II-TOPO for sequence verification. The 5′ and 3′ sections were joined together when subcloned into pIRES (Clontech, Palo Alto, Calif.) for expression in mammalian cells.
THP-1 cells (maintained at cell number less than 1×10^6 cells/ml) were co-transfected with the plamid vector containing either the TLR6DN or TLR7DN construct and with a murine H2K^k plasmid (Miltenyi Biotec Inc., Auburn, Calif.) in a 4:1 ratio of TLR plasmid to H2K^k plasmid. Transfection of THP-1 cells was carried out using the transfection reagent FuGENE 6 (Roche Diagnostics Corp., Indianapolis, Ind.) according to the manufacturer's specifications. […]
as §1

T1 sequence (Q9EPW9 28-795 P680H): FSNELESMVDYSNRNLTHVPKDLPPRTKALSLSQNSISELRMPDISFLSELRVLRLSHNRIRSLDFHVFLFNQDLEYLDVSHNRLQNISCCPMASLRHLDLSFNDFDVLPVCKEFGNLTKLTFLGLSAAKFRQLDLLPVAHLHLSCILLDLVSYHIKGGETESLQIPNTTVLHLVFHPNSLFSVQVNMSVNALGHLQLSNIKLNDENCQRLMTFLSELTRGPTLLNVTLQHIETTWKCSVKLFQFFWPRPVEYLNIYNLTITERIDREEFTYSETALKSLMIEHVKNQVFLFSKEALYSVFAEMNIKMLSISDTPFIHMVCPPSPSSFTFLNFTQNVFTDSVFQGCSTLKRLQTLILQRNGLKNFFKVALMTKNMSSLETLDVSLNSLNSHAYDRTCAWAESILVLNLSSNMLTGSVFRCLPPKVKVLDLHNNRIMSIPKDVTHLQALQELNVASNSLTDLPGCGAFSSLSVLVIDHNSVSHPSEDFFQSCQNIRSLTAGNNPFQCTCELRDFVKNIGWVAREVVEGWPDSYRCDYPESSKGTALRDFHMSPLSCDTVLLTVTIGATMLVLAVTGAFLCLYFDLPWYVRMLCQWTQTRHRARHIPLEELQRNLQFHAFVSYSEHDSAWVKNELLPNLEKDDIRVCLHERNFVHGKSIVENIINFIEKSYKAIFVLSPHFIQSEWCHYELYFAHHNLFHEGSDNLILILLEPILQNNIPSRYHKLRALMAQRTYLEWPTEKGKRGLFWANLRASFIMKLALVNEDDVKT
T1 sequence (Q9QUN7 25-784 partner): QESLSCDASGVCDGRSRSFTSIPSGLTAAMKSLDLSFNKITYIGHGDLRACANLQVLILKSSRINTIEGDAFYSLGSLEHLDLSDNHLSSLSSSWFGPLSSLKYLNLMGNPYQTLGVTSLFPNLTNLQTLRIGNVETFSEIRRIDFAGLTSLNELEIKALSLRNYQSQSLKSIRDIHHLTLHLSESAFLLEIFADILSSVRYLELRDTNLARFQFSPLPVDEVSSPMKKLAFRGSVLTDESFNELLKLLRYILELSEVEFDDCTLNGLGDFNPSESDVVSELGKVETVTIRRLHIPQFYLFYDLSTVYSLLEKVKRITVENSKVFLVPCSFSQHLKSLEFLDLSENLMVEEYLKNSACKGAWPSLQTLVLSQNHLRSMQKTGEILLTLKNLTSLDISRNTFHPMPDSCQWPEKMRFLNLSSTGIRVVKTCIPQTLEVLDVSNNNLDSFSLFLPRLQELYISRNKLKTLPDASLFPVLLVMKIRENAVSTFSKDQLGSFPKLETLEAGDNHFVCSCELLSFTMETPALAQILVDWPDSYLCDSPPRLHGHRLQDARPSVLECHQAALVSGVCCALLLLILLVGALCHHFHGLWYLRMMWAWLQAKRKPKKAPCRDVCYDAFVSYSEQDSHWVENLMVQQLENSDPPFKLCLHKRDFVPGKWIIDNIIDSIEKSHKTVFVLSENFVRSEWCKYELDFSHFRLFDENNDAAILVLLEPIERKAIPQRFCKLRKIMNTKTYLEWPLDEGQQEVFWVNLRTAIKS
T2 sequence (Q9Y2C9 32-796 P680H): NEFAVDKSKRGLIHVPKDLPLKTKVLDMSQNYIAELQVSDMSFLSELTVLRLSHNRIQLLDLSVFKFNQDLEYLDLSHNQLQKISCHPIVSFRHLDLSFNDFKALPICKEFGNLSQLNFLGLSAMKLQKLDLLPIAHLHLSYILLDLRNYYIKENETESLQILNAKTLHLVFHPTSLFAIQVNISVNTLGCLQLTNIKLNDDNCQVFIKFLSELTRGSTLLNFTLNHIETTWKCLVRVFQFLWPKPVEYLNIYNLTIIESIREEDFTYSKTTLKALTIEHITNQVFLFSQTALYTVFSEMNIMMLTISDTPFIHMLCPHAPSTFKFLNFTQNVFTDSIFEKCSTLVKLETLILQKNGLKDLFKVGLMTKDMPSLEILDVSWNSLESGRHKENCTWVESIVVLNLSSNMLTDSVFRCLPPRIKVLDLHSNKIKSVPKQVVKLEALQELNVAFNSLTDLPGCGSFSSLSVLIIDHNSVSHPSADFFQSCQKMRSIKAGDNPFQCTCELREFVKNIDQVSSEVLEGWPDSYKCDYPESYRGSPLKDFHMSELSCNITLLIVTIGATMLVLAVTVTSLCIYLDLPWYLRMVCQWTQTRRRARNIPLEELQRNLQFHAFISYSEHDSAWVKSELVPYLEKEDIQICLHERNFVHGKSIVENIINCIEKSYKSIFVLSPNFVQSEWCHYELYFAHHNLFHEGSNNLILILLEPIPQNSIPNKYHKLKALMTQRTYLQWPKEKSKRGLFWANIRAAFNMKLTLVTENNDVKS
T2 sequence (O60603 19-784 partner limits assumed): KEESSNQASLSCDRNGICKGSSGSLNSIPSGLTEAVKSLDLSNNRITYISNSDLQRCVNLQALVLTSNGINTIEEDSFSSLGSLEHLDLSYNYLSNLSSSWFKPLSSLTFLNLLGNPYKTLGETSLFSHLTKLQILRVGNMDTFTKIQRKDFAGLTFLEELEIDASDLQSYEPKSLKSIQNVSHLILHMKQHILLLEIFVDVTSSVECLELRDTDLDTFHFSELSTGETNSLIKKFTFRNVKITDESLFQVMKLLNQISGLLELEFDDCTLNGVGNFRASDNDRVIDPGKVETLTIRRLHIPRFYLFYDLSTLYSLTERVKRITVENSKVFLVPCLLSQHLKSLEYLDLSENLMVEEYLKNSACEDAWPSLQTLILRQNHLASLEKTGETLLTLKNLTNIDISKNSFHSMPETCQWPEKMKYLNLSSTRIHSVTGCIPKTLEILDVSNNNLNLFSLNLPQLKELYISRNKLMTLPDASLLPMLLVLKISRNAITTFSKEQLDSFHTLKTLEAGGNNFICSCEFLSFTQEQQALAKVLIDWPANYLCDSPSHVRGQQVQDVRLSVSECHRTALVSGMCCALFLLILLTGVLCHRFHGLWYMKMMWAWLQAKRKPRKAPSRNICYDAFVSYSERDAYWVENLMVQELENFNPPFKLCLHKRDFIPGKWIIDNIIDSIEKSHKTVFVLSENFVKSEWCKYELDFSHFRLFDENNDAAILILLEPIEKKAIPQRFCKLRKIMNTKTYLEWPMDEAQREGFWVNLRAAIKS

Effect of TLR6DN on stimulus-induced TNF-α production (in words) (TLR6 [1]; compared with stimulation by LPS): inhibited to a much greater extent
% inhibition of TNF-α production (TLR6DN) (TLR6 [1]; stimulus 3 μM): 70.9%
Effect of TLR6DN on stimulus-induced TNF-α production (in words) (TLR6 [2]; compared to control vector): inhibited
TLR6DN % inhibition of TNF-α production (TLR6 [2]; stimulus 3 μM, 18 hours, relative to vector control): 70.1%
SMILES: CCOCc1nc2c(N)nc3ccccc3c2n1CC(C)(C)O [Resiquimod, 4-amino-2-ethoxymethyl-α,α-dimethyl-1H-imidazo[4,5-c]quinoline-1-ethanol]

Source: US20040014779A1, “Methods and compositions related to IRM compounds and toll-like recptor pathways” (3M Innovative Properties Company, priority 2001, published 2004)
